Reference: patent publication EP0198605A1, “Prophylaxis of pharmacotherapy of liver disorders” (TEIJIN LIMITED, priority 1985, dated 1986)
Read-outs that look alike come from different tables or passages of the source.

Assays:
[1] = system: hepatic necrocytosis induced by carbon tetrachloride; assay: Hepatic necrocytosis induced by carbon tetrachloride (in vivo), serum GOT and GPT; design: species or system SD male rats; settings: for Enzyme Activity GOT (U/L) / Enzyme Activity GPT (U/L): 6 administrations, CCl4 0.5 ml/kg i.p.
Protocol: In the evaluation tests, 6 weeks old SD male rats were used. […] The rats were freely fed or supplied with a solid feed and drinking water.
Carbon tetrachloride (CC14) was diluted with an olive oil and was peritoneally injected in each rat at a dosage of 0.5 ml/kg. To the control group, only CC14 diluted with the olive oil and a 5% gum arabic solution containing no active ingredient were administered. Furthermore, only the olive oil but no CC14 was administered to the olive oil injection group in the Tables.
The methincyanine compounds listed in Tables 4 to 6 were administered as follows. Methincyanine compounds were diluted 100 times with dextrose dissolved in 5% gum arabic solutions. The administration schedules were such that the methiocyanine compounds were administered 6 times in total from 5 days before the CC14 injection to the day of the injection.
Blood was sampled from the orbital veniplex of the rat and was allowed to stand at room temperature for one hour. The blood sample was then centrifugally separated at 2800 rpm for 10 minutes. The resultant supernatant was used as a serum sample.
The determination of GOT and GPT in the serum sample was carried out by using a determination kit (available from Boeklinger-Yamanouchi Co.) and the results were recorded in an automatic analyzer (available from FLEXIGEM Co.).

[2] = system: hepatic disorders induced by D-galactosamine; assay: Hepatic disorders induced by D-galactosamine in rats (serum GOT, GPT, bilirubin, complement value); assay type: in vivo, Wister male rats; settings: for Bilirubin / Complement value (%) / Enzyme activity GOT (K.U.) / Enzyme activity GPT (K.U.): GalN 250 mg/kg i.p., serum two days after GalN
rats = settings: oral, cited from earlier work
rat liver cells = assay: Hepatic necrocytosis induced by carbon tetrachloride (in vitro), trypan blue exclusion test; assay type: cell-based
Protocol: Liver cells were prepared according to a method disclosed in Nakamura et al "Proteins, Nucleic Acids, and Enzymes" Vol. 24, pages 55-76 (1981). That is, the rat liver cells, which were previously peritoneally treated with phenobarbital at 80 mg/kg/day for 3 days, were collected by centrifugal separation after being subjected to 0.05% collagenase perfusion.
The liver cells thus obtained were suspended in a William's E culture medium containing 10% fetal calf serum, dexamethasone (10^-6 M) and insulin (0.02 unit/ml). A 3 ml amount of the cell dispersion having a cell content of 5 x 10^S cells/ml was placed in a 25 mm Falcon dish and was then incubated at a temperature of 37°C under an atmosphere of 5% C02 and 95% air for 3 hours. After 3 hours incubation, the number of surviving liver cells in the incubated dish was measured according to a trypan blue exclusion test. The average value thereof was used as a control value for the survival percentage of the liver cells in the pre-incubation.
Then, a culture medium containing 2-[2-(3-heptyl-4-methyl-4-thiazolin-2-ylidene) methyll-3-heptyl thiazolinium iodide (i.e., pionin) dissolved in ethanol was substituted after removing non-adhesive cells and was then incubated for a further one hour. The concentrations of pionin in the culture medium were 0.94 x 10^-6, 1.8x10^-7, 1x10^-8, 1x10^-9, and I x 10^-10 mole and, as a control or comparative test, the culture medium itself, the culture medium containing 0.5% of ethanol, and the culture medium containing 0.25 µm/ml of carbon tetrachloride were used.
Then, 0.25 pm/ml of carbon tetrachloride was added to each culture dish and the incubation was carried out for a further 3 hours under the same conditions mentioned above. No further carbon tetrachloride was added to the comparative culture containing carbon tetrachloride. After 3 hours incubation, the number of survival liver cells was measured according to a trypan blue exclusion test. The percentage ratio of the mean survival number to the survival number of the above-mentioned pre-incubation was then calculated.
The results are shown in Table 1, in which the mean survival cell percentage (%) and standard deviation thereof in the culture dish containing 4 to 29 liver cells (i.e., N). Statistical significance was evaluated by Student's t-test.

[3] = Table 2, intravenous, 0.1 µg/kg
[4] = Table 2, intravenous, 0.5 µg/kg

For `CCCCCCCN1C(C)=CSC1=Cc1scc(C)[n+]1CCCCCCC` [Pionin, 2-[2-(3-heptyl-4-methyl-4-thiazolin-2-ylidene)methyl]-3-heptyl-4-methyl thiazolinium iodide], the “Enzyme Activity GOT (U/L)” value ([1]; Table 4, oral, 1 µg/kg) was 678.3 ± 76.5 U/L, the “Enzyme Activity GPT (U/L)” value ([1]; Table 4, oral, 1 µg/kg) was 209.0 ± 31.2 U/L and the “Enzyme Activity GOT (U/L)” value ([1]; Table 4, oral, 3 µg/kg) was 754.5 ± 108.8 U/L. The “Enzyme Activity GPT (U/L)” value ([1]; Table 4, oral, 3 µg/kg) was 269.7 ± 50.3 U/L, the “Enzyme Activity GOT (U/L)” value ([1]; Table 4, oral, 10 µg/kg) was 559.2 ± 56.6 U/L and the “Enzyme Activity GPT (U/L)” value ([1]; Table 4, oral, 10 µg/kg) was 165.8 ± 25.9 U/L. For the same compound, the “Enzyme Activity GOT (U/L)” value ([1]; Table 4, oral, 30 µg/kg) was 946.8 ± 110.6 U/L, the “Enzyme Activity GPT (U/L)” value ([1]; Table 4, oral, 30 µg/kg) was 311.4 ± 49.4 U/L and the “Enzyme Activity GOT (U/L)” value ([1]; Table 6, oral, 10 µg/kg) was 807 ± 172 U/L. For the same compound, the “Enzyme Activity GPT (U/L)” value ([1]; Table 6, oral, 10 µg/kg) was 251 ± 83 U/L, the “inhibiting liver necrocytosis induced by CCl4 (result in words)” value ([1]; in vivo, summary of Tables 4 to 6) was “has an activity capable of inhibiting liver necrocytosis induced by CCl4” and the “Bilirubin” value [2, 3] was 0.51 mg/dL. For the same compound, the “Complement value (%)” value [2, 3] was 88.2%, the “Enzyme activity GOT (K.U.)” value [2, 3] was 550 ± 160 K.U and the “Enzyme activity GPT (K.U.)” value [2, 3] was 510 ± 62 K.U. For the same compound, the “Bilirubin” value [2, 4] was 0.35 mg/dL, the “Complement value (%)” value [2, 4] was 96.6% and the “Enzyme activity GOT (K.U.)” value [2, 4] was 420 ± 30 K.U. For the same compound, the “Enzyme activity GPT (K.U.)” value [2, 4] was 300 ± 55 K.U, the “Bilirubin” value ([2]; Table 2, intravenous, 1 µg/kg) was 0.44 mg/dL and the “Complement value (%)” value ([2]; Table 2, intravenous, 1 µg/kg) was 91.2%. The “Enzyme activity GOT (K.U.)” value ([2]; Table 2, intravenous, 1 µg/kg) was 780 ± 29 K.U, the “Enzyme activity GPT (K.U.)” value ([2]; Table 2, intravenous, 1 µg/kg) was 600 ± 40 K.U and the “Bilirubin” value ([2]; Table 2, intravenous, 10 µg/kg) was 0.77 mg/dL. The “Complement value (%)” value ([2]; Table 2, intravenous, 10 µg/kg) was 87.6%, the “Enzyme activity GOT (K.U.)” value ([2]; Table 2, intravenous, 10 µg/kg) was 1036 ± 50 K.U and the “Enzyme activity GPT (K.U.)” value ([2]; Table 2, intravenous, 10 µg/kg) was 980 ± 39 K.U. The “Bilirubin” value ([2]; Table 3, oral, 0.1 µg/kg) was 0.77 mg/dL, the “Complement value (%)” value ([2]; Table 3, oral, 0.1 µg/kg) was 86.1% and the “Enzyme activity GOT (K.U.)” value ([2]; Table 3, oral, 0.1 µg/kg) was 1200 ± 198 K.U. The “Enzyme activity GPT (K.U.)” value ([2]; Table 3, oral, 0.1 µg/kg) was 1003 ± 87 K.U, the “Bilirubin” value ([2]; Table 3, oral, 0.5 µg/kg) was 0.36 mg/dL and the “Complement value (%)” value ([2]; Table 3, oral, 0.5 µg/kg) was 91.1%. The “Enzyme activity GOT (K.U.)” value ([2]; Table 3, oral, 0.5 µg/kg) was 622 ± 100 K.U, the “Enzyme activity GPT (K.U.)” value ([2]; Table 3, oral, 0.5 µg/kg) was 550 ± 51 K.U and the “Bilirubin” value ([2]; Table 3, oral, 1 µg/kg) was 0.55 mg/dL. The “Complement value (%)” value ([2]; Table 3, oral, 1 µg/kg) was 92.3%, the “Enzyme activity GOT (K.U.)” value ([2]; Table 3, oral, 1 µg/kg) was 710 ± 30 K.U and the “Enzyme activity GPT (K.U.)” value ([2]; Table 3, oral, 1 µg/kg) was 440 ± 13 K.U. For the same compound, the “Bilirubin” value ([2]; Table 3, oral, 10 µg/kg) was 0.88 mg/dL, the “Complement value (%)” value ([2]; Table 3, oral, 10 µg/kg) was 88.8% and the “Enzyme activity GOT (K.U.)” value ([2]; Table 3, oral, 10 µg/kg) was 1350 ± 136 K.U. The “Enzyme activity GPT (K.U.)” value ([2]; Table 3, oral, 10 µg/kg) was 1200 ± 188 K.U, the “inhibition of liver disorders induced by D-galactosamine (result in words)” value ([2]; summary of Tables 2 and 3) was “can inhibit liver disorders induced by D-galactosamine” and the LD50 (rats; female rats) was 503 mg/kg. For the same compound, the LD50 (rats; male rats) was 460 mg/kg, the viability at 0.94 µM (rat liver cells; Rattus norvegicus, CCl4 + Pionin 0.94 x 10^-6 M, 3 hours after CCl4, mean ± standard deviation, read-out: Survival ratio (%)) was 43.6 ± 11.6% and the viability at 0.01 µM (rat liver cells; Rattus norvegicus, CCl4 + Pionin 1 x 10^-8 M, 3 hours after CCl4, mean ± standard deviation, read-out: Survival ratio (%)) was 63.5 ± 19%. It also gave a viability at 0.001 µM (rat liver cells; Rattus norvegicus, CCl4 + Pionin 1 x 10^-9 M, 3 hours after CCl4, mean ± standard deviation, read-out: Survival ratio (%)) of 63.4 ± 6.8%, a viability at 0.0001 µM (rat liver cells; Rattus norvegicus, CCl4 + Pionin 1 x 10^-10 M, 3 hours after CCl4, mean ± standard deviation, read-out: Survival ratio (%)) of 63.2 ± 23% and a viability at 0.18 µM (rat liver cells; Rattus norvegicus, CCl4 + Pionin 1.8 x 10^-7 M, 3 hours after CCl4, mean ± standard deviation, read-out: Survival ratio (%)) of 47.1 ± 8.1%. The “inhibiting liver necrocytosis (result in words)” value (rat liver cells; in vitro, summary of Table 1) was “has an activity capable of inhibiting liver necrocytosis”.
